# Test results as given in patent US7772263B2, “Compounds for the treatment of inflammatory disorders” (Schering Corporation, priority 2006, dated 2010).
# Target: T1, purified catalytic domain of recombinant human TACE (rhTACEc) (Homo sapiens, UniProt P78536, N452Q/S266A)
# T1 construct: rhTACEc, Residue 215 to 477 with two mutation (S266A and N4520) and a 6×His tail; 6xHis (C); made in house; host or cells: baculovirus/Hi5 insect cells
# Assay: TACE kinetic assay, cleavage of internally quenched fluorescent peptide substrate SPDL-3
# Format: biochemical
# Settings: TACE inhibition, Table 1001; read-out: Ki Rating
# T1 sequence (P78536 215-477 S266A/N452Q limits assumed): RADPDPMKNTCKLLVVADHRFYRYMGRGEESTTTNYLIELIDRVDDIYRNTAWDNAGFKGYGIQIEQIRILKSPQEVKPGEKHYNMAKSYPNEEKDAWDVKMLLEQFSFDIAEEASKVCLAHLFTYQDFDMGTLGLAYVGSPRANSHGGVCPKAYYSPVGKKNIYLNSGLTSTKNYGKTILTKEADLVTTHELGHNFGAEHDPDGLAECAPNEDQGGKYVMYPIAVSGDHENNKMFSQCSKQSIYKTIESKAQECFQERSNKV
row,Ki [nM],SMILES
1,< 5,CCc1cc(C#C[C@]2(CN3Cc4ccc(OC)cc4C3=O)NC(=O)NC2=O)cc2sc(N)nc12 [Compound 919]
2,< 5,COc1ccc2c(c1)C(=O)N(C[C@@]1(C#Cc3cnccc3N)NC(=O)NC1=O)C2 [Compound 920]
3,< 5,O=C1NC(=O)[C@@](C#Cc2cc(F)cc(F)c2)(CN2Cc3ccc(OC(F)F)cc3C2=O)N1 [Compound 922]
4,< 5,COC(=O)c1ncccc1C#C[C@]1(CN2Cc3ccc(OC)cc3C2=O)NC(=O)NC1=O [Compound 924]
5,< 5,COc1ccc2c(c1)C(=O)N(C[C@@]1(C#Cc3cccnc3C(=O)O)NC(=O)NC1=O)C2 [Compound 925]
6,5 to 25,COc1ccc2c(c1)C(=O)N(C[C@@]1(C#Cc3ccncc3N)NC(=O)NC1=O)C2 [Compound 926]
7,< 5,COc1ccc2c(c1)C(=O)N(C[C@@]1(C#Cc3ncccc3N)NC(=O)NC1=O)C2 [Compound 928]
8,< 5,COc1ccc2c(c1)C(=O)N(C[C@@]1(C#Cc3cccnc3N)NC(=O)NC1=O)C2 [Compound 930]
9,< 5,COc1ccc2c(c1)C(=O)N(C[C@@]1(C#Cc3cccc(C(C)C)c3)NC(=O)NC1=O)C2 [Compound 931]
10,< 5,COc1ccc2c(c1)C(=O)N(C[C@@]1(C#Cc3cnc4ncccc4c3)NC(=O)NC1=O)C2 [Compound 932]
11,< 5,COc1ccc2c(c1)C(=O)N(C[C@@]1(C#Cc3ccc4ncccc4c3)NC(=O)NC1=O)C2 [Compound 933]
12,< 5,COc1ccc2c(c1)C(=O)N(C[C@@]1(C#Cc3cc(C(F)(F)F)cc(C(F)(F)F)c3)NC(=O)NC1=O)C2 [Compound 934]
13,< 5,COc1ccc2c(c1)C(=O)N(C[C@@]1(C#Cc3ccc(OC(F)F)cc3)NC(=O)NC1=O)C2 [Compound 937]
14,< 5,COc1ccc2c(c1)C(=O)N(C[C@@]1(C#Cc3cc(F)c(Cl)c(F)c3)NC(=O)NC1=O)C2 [Compound 938]
15,< 5,COc1ccc2c(c1)C(=O)N(C[C@@]1(C#Cc3ccc(C#N)c(F)c3)NC(=O)NC1=O)C2 [Compound 939]
16,< 5,COc1ccc2c(c1)C(=O)N(C[C@@]1(C#Cc3ccc4ccn(C)c4n3)NC(=O)NC1=O)C2 [Compound 940]
17,< 5,COc1ccc2c(c1)C(=O)N(C[C@@]1(C#Cc3cnc4c(ccn4C)c3)NC(=O)NC1=O)C2 [Compound 941]
18,< 5,COc1ccc2c(c1)C(=O)N(C[C@@]1(C#Cc3cnc4nc(O)ccc4c3)NC(=O)NC1=O)C2 [Compound 942]
19,< 5,O=C1NC(=O)[C@@](C#Cc2cccnc2)(CN2Cc3ccc(OC(F)F)cc3C2=O)N1 [Compound 943]
20,< 5,COc1ccc2c(c1)C(=O)N(C[C@@]1(C#Cc3cnc4nc(N)c(C#N)cc4c3)NC(=O)NC1=O)C2 [Compound 944]
21,< 5,COc1ccc2c(c1)C(=O)N(C[C@@]1(C#Cc3cccc(S(N)(=O)=O)c3)NC(=O)NC1=O)C2 [Compound 945]
22,< 5,COc1ccc2c(c1)C(=O)N(C[C@@]1(C#Cc3ccc(S(N)(=O)=O)cc3)NC(=O)NC1=O)C2 [Compound 946]
23,< 5,COc1ccc2c(c1)C(=O)N(C[C@@]1(C#Cc3ccccc3S(N)(=O)=O)NC(=O)NC1=O)C2 [Compound 947]
24,< 5,COc1ccc2c(c1)C(=O)N(C[C@@]1(C#Cc3cn(C)c(C)n3)NC(=O)NC1=O)C2 [Compound 948]
25,< 5,COc1ccc2c(c1)C(=O)N(C[C@@]1(C#Cc3cnc4[nH]ccc4c3)NC(=O)NC1=O)C2 [Compound 949]
26,< 5,COc1ccc2c(c1)C(=O)N(C[C@@]1(C#Cc3cc(OC)cc4sc(N)nc34)NC(=O)NC1=O)C2 [Compound 950]
27,< 5,COc1ccc2c(c1)C(=O)N(C[C@@]1(C#Cc3ccc4nccc(OC)c4c3)NC(=O)NC1=O)C2 [Compound 951]
28,< 5,COc1ccc2c(c1)C(=O)N(C[C@@]1(C#Cc3nccc4cc[nH]c34)NC(=O)NC1=O)C2 [Compound 952]
29,< 5,COc1ccc2c(c1)C(=O)N(C[C@@]1(C#Cc3cncc4cc[nH]c34)NC(=O)NC1=O)C2 [Compound 953]

# Same assay, conditions: rhTACEc 70 pM, 30 μM SPDL-3, 90 min pre-incubation at 25° C.; read-out: Ki (nM), TACE inhibitory activity
row,Ki [nM],SMILES
1,0.56,COc1ccc2c(c1)C(=O)N(C[C@@]1(C#Cc3cccnc3N)NC(=O)NC1=O)C2 [Compound 930]
